Target: T1, rat P2X3 receptor (Rattus norvegicus, UniProt P49654)
T1 construct: expressed in transfected cells; host or cells: CHO-K1
T1 sequence (P49654 1-397): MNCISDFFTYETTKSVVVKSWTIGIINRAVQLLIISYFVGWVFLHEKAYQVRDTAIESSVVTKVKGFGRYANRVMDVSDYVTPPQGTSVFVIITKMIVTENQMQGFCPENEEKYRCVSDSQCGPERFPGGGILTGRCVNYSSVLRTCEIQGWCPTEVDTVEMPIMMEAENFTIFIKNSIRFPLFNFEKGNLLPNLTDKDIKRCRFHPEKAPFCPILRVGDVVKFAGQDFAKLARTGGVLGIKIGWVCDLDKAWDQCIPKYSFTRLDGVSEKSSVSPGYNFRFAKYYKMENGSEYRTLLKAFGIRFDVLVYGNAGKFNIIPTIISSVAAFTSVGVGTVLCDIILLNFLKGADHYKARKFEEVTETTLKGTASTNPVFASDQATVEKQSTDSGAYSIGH
Assay: P2X3 FLIPR (Fluorometric Imaging Plate Reader) assay
Type: cell-based
Details: CHO-K1 cells transfected with cloned rat P2X3; agonist α,β-meATP 1 μM; Fluo-3 AM calcium fluorescence
Method in brief: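 CHO-K1 cells expressing rat P2X3 or human P2X2/3 were Fluo-3-loaded and preincubated with compound for 20 min at room temperature. Calcium responses to α,β-meATP at 1 μM (P2X3) or 5 μM (P2X2/3) were read on FLIPR as peak fluorescence. Inhibition curves were fitted by nonlinear regression.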

- P2X3 (pIC50 values for the P2X3 receptor): 7.58
Compound: Cc1ccc(-c2cc(C(=O)N[C@@H](C)CO)cc(N(C)C(=O)C(C)C)c2)nc1 [Compound 72, N-((S)-2-Hydroxy-1-methyl-ethyl)-3-(isobutyryl-methyl-amino)-5-(5-methyl-pyridin-2-yl)-benzamide]
